From paper PMC11220827 (Frontiers in Pharmacology, 2024)
Several values for one entry are separate records, joined by “and”; a condition that tells them apart may be missing. Equal values may be shown once. Read-outs that look alike come from different tables or passages of the source.

Tests used:
[1] = test system: Androgen pathway; parameters: method as in ToxCast; conditions: ref ToxCast, cited from earlier work; on Androgen pathway: Cell Proliferation, Call: key: Pos = positive result; Neg = negative result; Inc = uncertain/inconclusive result; on Androgen pathway: Dimerization, Call: key: Pos = positive result; Neg = negative result; Inc = uncertain/inconclusive result; on Androgen pathway: Receptor binding, Call: key: Pos = positive result; Neg = negative result; Inc = uncertain/inconclusive result; on Androgen pathway: Reporter protein Agonist, Call: key: Pos = positive result; Neg = negative result; Inc = uncertain/inconclusive result
[2] = molecular target: Estrogen ERα (h) (Homo sapiens, UniProt P03372); test: biochemical; conditions: read-out: Estrogen ERα (h) (agonist RL): % inhibition @10 µM
[3] = molecular target: T1, ERα receptor (Homo sapiens, UniProt P03372)
Method: (§1) using the U2-OS based CALUX cytotox bioassay. The cytotoxicity of each test chemical was assessed using the U2-OS based cytotoxicity CALUX bioassay. Concentrations causing >20% reduction of luminescence were considered cytotoxic.
(§2) cytotoxicity (relative induction in the cytotoxicity CALUX bioassay > 80%) were used for final
evaluation of analysis results.
(§3) induction in the cytotox CALUX bioassay > 80%) were used for final evaluation of analysis results.
(§4) All analysis results were expressed in molar (M) final in well.
(§5) For determination of the (anti-)ERα, (anti-)AR and (anti-)TRβ CALUX activities, CALUX cells were
(§6) seeded in assay medium. Following exposure of the CALUX cells to serial dilutions of the
(§7) compounds in triplicate for 24 h, the induction of luciferase production was quantified by measuring
(§8) luminescence following addition of the substrate luciferin. For antagonist assays, a fixed
(§9) concentration of assay agonist was present in each well, to generate a basal signal. On each plate, a
(§10) complete calibration curve for each respective bioassay was also analysed using the relevant reference
compounds. For the analyses in the presence of rat liver S9, 0.03% (v/v) of PB/BNF induced rat liver […]
Relative light units (RLUs) of the CALUX assays were analysed as follows. […]
(§11) effect concentrations (LOECs) and PC50 concentrations were determined; LOEC is defined as the […]

[4] = molecular target: 5-HT2A (h) (Homo sapiens, UniProt P28223); test: biochemical; assay type: binding; conditions: read-out: 5-HT2A (h) (agonist RL): % inhibition @10 µM
Method: Chemicals that are flagged for a target are tested in follow-up dose-response assays to establish potency of the interaction.
Pharmacology profiling assays
targets. The list of targets included the original panel of 44 targets (including receptors, ion channels,
transporters and enzymes) recommended by 4 major pharmaceutical companies as significant
reasoned to link to pathological effects. Results showing an inhibition or stimulation higher than 50%
are considered to represent significant effects (i.e. a “hit”).
and 50% are indicative of weak to moderate effects and results showing an inhibition (or stimulation)
around the control level. For several targets, additional concentration effect assays were conducted to
determine the potency (IC50). The concentrations tested (in duplicate) ranged between 30 nM and 100

[5] = in vivo; cited from earlier work
[6] = for BER, Cmax, total CI5%: PoD 10 nM
From the text: For human exposure, the aim is to estimate a safe dose when used in a body lotion or face cream. […] Therefore, metabolism was considered by incorporating a model to characterize the rate of metabolism and then fitted it to the metabolism measured in ex vivo viable skin.
An additional safety factor of 3.3 was applied to account for intra-individual variability.

[7] = molecular target: T1, ERα receptor; remark: listed apart in the source
[8] = test system: H295R cells
Method: (§12) DMSO (1% compound stock in incubation mixture).
was measured on a Berthold luminometer.
(§13) Serial dilutions of the compounds were incubated in Tris -buffer (pH 8.0) overnight at 4°C in the
(§14) incubation mixture). After incubation, TTR-bound and free T4 were separated on a Bio-Gel P-6DG
(§15) column. The eluate was added to assay medium after which TRβ CALUX cells were exposed for 24 h
(§16) For this TRβ CALUX exposure, serum-free assay medium was used.
(§17) wells plates in assay medium, and exposed for 48h to a serial dilution of the compound in triplicate
(§18) exposure, the assay medium was analysed on the ERα and AR CALUX bioassays as described
(§19) Changes in hormone levels compared to a vehicle control exposure
(§20) Preincubation with rat liver S9 fraction
(§21) To assess the effect of metabolism on the activity of the test
(§22) compound for these assays, preincubations with rat liver S9 were performed. Compounds (10 μl
(§23) DMSO stock solution) were incubated for 0 h (control) or 3 h (test condition) in a total volume of 1
(§24) ml TRIS buffer in the presence of 1% (v/v) PB/BNF induced rat liver S9 mix (including NADPH and
(§25) an NADPH-regenerating system). After incubation, the reaction was stopped by the addition of ice
(§26) cold acetone, and samples were frozen to stimulate protein precipitation. After thawing, the
(§27) precipitated protein fraction was subsequently removed by centrifugation. The supernatant, cont aining
(§28) the metabolites and any remaining non-metabolised parent compound, was concentrated under a
(§29) gentle nitrogen flow. After evaporating to dryness, the sample was taken up in 50 μl DMSO followed
(§30) by the addition of 50 μl TRIS buffer. This extract was used for the exposure of the hTPO inhibition,
(§31) Relative light units (RLUs) of the CALUX assays were analysed as follows. For agonist assays,
(§32) background values (exposure to DMSO only) were subtracted, and the maximum activity of the
(§33) assay’s reference compound was set to 100%. For antagonist assays, the basal signal (exposure to fixed concentration of agonist only) was set to 100%. Activity of the samples was scaled accordingly,
(§34) resulting in expression of the data as “percentage of maximum reference response”. Graphs were
(§35) generated using the statistical software package GraphPad Prism V5.03. Using these graphs, lowest
(§36) effect concentrations (LOECs) and PC50 concentrations were determined; LOEC is defined as the
(§37) maximum reference compound activity for agonist assays, and 20% of the maximum reference
(§38) compound activity for antagonist assays. The PC50 is defined as the concentration where the activity
(§39) of the sample equals 50% of the maximum activity of the assay’s reference compound.
(§40) the test compound was divided by the amount of estrogens and androgens produced by the solvent
(§41) control-exposed cells. A sample was considered ‘active’ if it decreased the hormone production 0.8-

[9] = test system: Syrian Hamster Embryo (SHE) cells; conditions: ref SCCS 2022; cited from earlier work
[10] = test system: mice; conditions: in the diet; ref SCCS 2022; cited from earlier work
[11] = at 25°C, in vitro; ref Nan et al. (2014); cited from earlier work
[12] = test system: Sprague-Dawley rats; conditions: cited from earlier work
[13] = test system: H295R cells; remark: listed apart in the source
Method: as §12
was measured on a Berthold luminometer.
as §13, §14, §15, §16, §17, §18, §19, §20, §21, §22, §23, §24, §25, §26, §27, §28, §29, §30, §31, §32, §33, §34, §35, §36, §37, §38, §39, §40, §41

[14] = molecular target: T2, TRβ (Homo sapiens, UniProt P10828)
T2 sequence (P10828 1-461): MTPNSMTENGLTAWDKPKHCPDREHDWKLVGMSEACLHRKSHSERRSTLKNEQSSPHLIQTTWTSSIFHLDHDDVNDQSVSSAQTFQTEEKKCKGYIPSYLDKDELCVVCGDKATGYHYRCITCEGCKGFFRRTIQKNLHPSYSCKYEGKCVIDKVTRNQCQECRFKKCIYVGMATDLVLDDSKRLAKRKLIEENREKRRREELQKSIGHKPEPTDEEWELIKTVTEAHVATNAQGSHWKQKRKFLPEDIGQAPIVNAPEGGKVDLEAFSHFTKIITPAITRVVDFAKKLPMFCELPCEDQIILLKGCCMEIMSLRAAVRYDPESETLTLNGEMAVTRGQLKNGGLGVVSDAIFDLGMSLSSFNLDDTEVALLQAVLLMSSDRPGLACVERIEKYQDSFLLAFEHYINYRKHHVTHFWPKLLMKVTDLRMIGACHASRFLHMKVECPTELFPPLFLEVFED
Method: as §1, §2
evaluation of analysis results.
as §3, §4, §5, §6, §7, §8, §9, §10
compounds. For the analyses in the presence of rat liver S9, 0.03% (v/v) of PB/BNF induced rat liver
S9 mix (including NADPH and an NADPH-regenerating system) was added to the cells directly after
addition of the compounds, which remained there for the duration of the exposure period (24 h) (van
as §31, §32, §33, §34, §35, §11

[15] = ref SCCS 2022; cited from earlier work
[16] = molecular target: T3, human thyroid peroxidase (hTPO) (Homo sapiens, UniProt P07202)
T3 sequence (P07202 19-933): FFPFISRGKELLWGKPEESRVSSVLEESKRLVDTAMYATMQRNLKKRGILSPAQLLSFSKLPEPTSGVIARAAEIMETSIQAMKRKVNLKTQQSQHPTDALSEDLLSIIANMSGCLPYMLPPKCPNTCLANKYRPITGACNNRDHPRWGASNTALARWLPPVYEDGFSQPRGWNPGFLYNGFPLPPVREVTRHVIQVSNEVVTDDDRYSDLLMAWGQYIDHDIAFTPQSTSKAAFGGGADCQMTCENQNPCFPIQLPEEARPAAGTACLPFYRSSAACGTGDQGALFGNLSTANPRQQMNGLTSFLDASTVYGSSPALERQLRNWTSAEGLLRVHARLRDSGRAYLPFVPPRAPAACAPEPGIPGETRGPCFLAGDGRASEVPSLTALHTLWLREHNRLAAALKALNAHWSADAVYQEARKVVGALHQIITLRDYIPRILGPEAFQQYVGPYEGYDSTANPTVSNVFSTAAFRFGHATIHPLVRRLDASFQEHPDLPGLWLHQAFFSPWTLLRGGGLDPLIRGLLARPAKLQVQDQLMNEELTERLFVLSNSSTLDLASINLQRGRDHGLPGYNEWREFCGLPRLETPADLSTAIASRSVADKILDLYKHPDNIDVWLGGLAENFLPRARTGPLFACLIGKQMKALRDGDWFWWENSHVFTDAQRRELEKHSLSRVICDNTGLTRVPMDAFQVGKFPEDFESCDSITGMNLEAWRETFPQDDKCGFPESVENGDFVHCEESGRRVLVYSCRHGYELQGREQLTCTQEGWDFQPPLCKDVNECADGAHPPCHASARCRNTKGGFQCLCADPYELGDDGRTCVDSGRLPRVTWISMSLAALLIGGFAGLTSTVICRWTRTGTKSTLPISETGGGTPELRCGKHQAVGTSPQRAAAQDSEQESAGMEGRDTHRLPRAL
Method: hTPO was derived from Nthy-ori 3-1 cells. Cell lysate containing hTPO in Glycine-NaOH buffer (pH
9.0) was incubated for 30 minutes at 37°C in the presence of serial dilutions of the compounds in
as §12
was measured on a Berthold luminometer.
as §20, §21
compound for these assays, preincubations with rat liver S9 were performed.

[17] = molecular target: Transthyretin (TTR) (Homo sapiens, UniProt P02766)
Method: DMSO (1% compound stock in incubation mixture). The incubation mixture was transferred to 96 -
was measured on a Berthold luminometer.
as §13, §14, §15
(see CALUX bioassays). For this TRβ CALUX exposure, serum-free assay medium was used.

[18] = test system: mice; conditions: oral administration; ref SCCS 2022; cited from earlier work
[19] = test system: HepG2 and MCF-7 cells; conditions: 24 h
[20] = +S9 (preincubation with rat liver S9)

## O=c1c(-c2ccc(O)cc2)coc2cc(O)ccc12 [Daidzein, DAIDZEIN]
[1]
  Androgen pathway: Cell Proliferation, Call: Neg
  Androgen pathway: Dimerization, Call: Neg
  Androgen pathway: Receptor binding, Call: Neg
  Androgen pathway: Reporter protein Agonist, Call: Neg
  Androgen pathway: Reporter protein Antagonist, Call: Inc
  Androgen pathway: mRNA induction, Call: Neg
[1]; read-out: Androgen pathway: Reporter protein Antagonist, AC50
  AC50: 36.1 µM
[2]
  inhibition at 10 µM: 100%
[3]; +S9 (rat liver)
  Anti-ERα antiestrogen LOEC, +S9: >−5 Log M
[3]; −S9
  Anti-ERα antiestrogen LOEC, −S9: >−5 Log M
[4]
  inhibition at 10 µM: 38.9%
[5]
  Highest measured plasma concentration: 3.14 µM
[6]; 0.02% daidzein
  BERs derived using unbound plasma concentrations: 100–250
[6]; body lotion with 0.02% daidzein
  BER, Cmax, total CI5%: 10/0.68 = 14.7
[6]; body lotion with 0.1% daidzein
  BER, Cmax, total CI5%: 10/3.37 = 3.0
[7]
  LOEC, ERα CALUX assay: 110 ± 18 nM
[7]; +S9 (rat liver)
  ERα receptor LOEC, +S9: −7.0 Log M
[7]; CALUX ERα, with rat liver S9
  LOEC, ERα + S9: 100 ± 0.0 nM and 100 ± 0 nM and 100 nM
[7]; CALUX ERα, without S9
  LOEC, ERα − S9: 110 nM
[7]; estimated from LOEC + S9
  NOEC (in vitro PoD) = ERα CALUX LOEC divided by 3: 33 nM
[7]; −S9
  ERα receptor LOEC, −S9: −6.9 Log M

## O=c1c(-c2ccc(O)cc2)coc2cc(O)cc(O)c12 [Genistein, 5,7-DIHYDROXY-3-(4-HYDROXYPHENYL)-4-BENZOPYRONE]
[8]
  Estrogen synthesis, Increase/decrease: No effect
[8]; [20]
  Steroidogenesis (ERα) 17β-estradiol LOEC, +S9: >−6.7 Log M
[8]; −S9
  Steroidogenesis (ERα) 17β-estradiol LOEC, −S9: >−6 Log M
[9]
  Cell transformation assay (SHE cells) result: one was positive
[10]
  P53-/- Mouse Tumorigenesis Assay result: negative
[11]
  pKa (dissociation constant): 7.25 ± 0.84
[12]; 5 ppm in feed, ref NTP 2008
  NOAEL, female rats: 0.5 mg/kg
  NOAEL, male rats (PoD): 0.3 mg/kg
[12]; ref SCCS 2022
  LOAEL, male rats: 7 mg/kg
[13]; [20]
  Steroidogenesis (AR) Testosterone LOEC, +S9: −5.7 Log M
[13]; H295R
  LOEC, androgen synthesis (impaired): 3.2 × 10^−6 ± 0 M
[13]; −S9
  Steroidogenesis (AR) Testosterone LOEC, −S9: −5.5 Log M
[14]; +S9 (rat liver)
  Anti-TRß antithyroid LOEC, +S9: >−5 Log M
[14]; −S9
  Anti-TRß antithyroid LOEC, −S9: >−5 Log M
[15]
  In vitro Comet assay result: positive, and four were negative
[16]
  LOEC for hTPO inhibition: 19 ± 8.9 µM
  TPO LOEC, Inhibition: 19 µM
[16]; [20]
  hTPO inhibition (thyroid) LOEC, +S9: >−4.7 Log M
[16]; −S9
  hTPO inhibition (thyroid) LOEC, −S9: −4.7 Log M
[17]
  TTR LOEC, Inhibition of binding of T4 to TTR: 0.21 µM
[17]; [20]
  TTR binding (thyroid) LOEC, +S9: −6.7 Log M
[17]; inhibition of binding of T4 to TTR
  LOEC for inhibition of TTR binding: 2.1 × 10^−7 ± 6.7 × 10^−8
[17]; −S9
  TTR binding (thyroid) LOEC, −S9: −6.7 Log M
[18]
  In vivo DNA damage/Comet assay result: Negative in mice after oral administration
[19]
  Metabolism by HepG2 or MCF-7 cells: metabolized by both cell types
